Test results: patent US8084644B2, “Iminopropene compound and use thereof” (Sumitomo Chemical Company, Limited, priority 2005, dated 2011)

Tested on: Haemaphysalis longicornis
Test: Test Example 11: filter paper bag contact test on ticks
Type: in vivo
Conditions: 48 h, 0.5 mg test compound on 5 cm×10 cm filter paper, after 2 days
Description: 0.5 mg of the test compound was dissolved to […]. Onto one side of filter paper having 5 cm×10 cm, the solution was applied uniformly and then air-dried. Thereafter, the filter paper was folded in half and fixed by paper clips at the side to form bag like shape. Ten Haemaphysalis longicornis was put into the bag, and then the bag was closed with a paper clip. After 2 days, the number of dead insects was examined.

SMILES | mortality at 0.5 mg/filter paper
C(=CC(=Nc1ccccc1)Sc1ccccc1)Sc1ccccc1 [(1), Phenyl N-phenyl-3-(phenylthio)thioacrylimidate] | 100%
Clc1ccc(SC(C=CSc2ccccc2)=Nc2ccccc2)cc1 [(2), 4-Chlorophenyl N-phenyl-3-(phenylthio)thioacrylimidate] | 100%
Clc1cccc(SC(C=CSc2ccccc2)=Nc2ccccc2)c1 [(3), 3-Chlorophenyl N-phenyl-3-(phenylthio)thioacrylimidate] | 100%
Clc1ccccc1SC(C=CSc1ccccc1)=Nc1ccccc1 [(4), 2-Chlorophenyl N-phenyl-3-(phenylthio)thioacrylimidate] | 100%
COc1ccc(SC(C=CSc2ccccc2)=Nc2ccccc2)cc1 [(26), 4-Methoxyphenyl N-phenyl-3-(phenylthio)thioacrylimidate] | 100%
Cc1ccc(N=C(C=CSc2ccccc2)Sc2ccccc2)cc1 [(28), Phenyl N-(4-methylphenyl)-3-phenylthiothioacrylimidate] | 100%
C(=CC(=Nc1ccccc1)Sc1ccccc1)Oc1ccccc1 [(35), Phenyl N-phenyl-3-(phenoxy)thioacrylimidate] | 100%
C(=CC(=Nc1ccccc1)Oc1ccccc1)Sc1ccccc1 [(37), Phenyl N-phenyl-3-(phenylthio)acrylimidate] | 100%
Clc1ccc(N=C(C=COc2ccccc2)Oc2ccccc2)cc1 [(43), Phenyl N-(4-chlorophenyl)-3-(phenoxy)acrylimidate] | 100%
Clc1cccc(N=C(C=COc2ccccc2)Oc2ccccc2)c1 [(45), Phenyl N-(3-chlorophenyl)-3-(phenoxy)acrylimidate] | 100%
Fc1ccccc1N=C(C=CSc1ccccc1)Oc1ccccc1 [(48), Phenyl N-(2-fluorophenyl)-3-(phenylthio)acrylimidate] | 100%
Fc1ccc(N=C(C=CSc2ccccc2)Oc2ccccc2)cc1 [(50), Phenyl N-(4-fluorophenyl)-3-(phenylthio)acrylimidate] | 100%
Fc1cccc(N=C(C=CSc2ccccc2)Oc2ccccc2)c1 [(51), Phenyl N-(3-fluorophenyl)-3-(phenylthio)acrylimidate] | 100%
FC(F)(F)c1ccc(N=C(C=CSc2ccccc2)Oc2ccccc2)cc1 [(52), Phenyl N-(4-trifluoromethylphenyl)-3-(phenylthio)acrylimidate] | 100%
Cc1ccc(N=C(C=CSc2ccccc2)Oc2ccccc2)cc1 [(54), Phenyl N-(4-methylphenyl)-3-(phenylthio)acrylimidate] | 100%
Clc1ccc(N=C(C=COc2ccccc2)Oc2ccccc2)cc1Cl [(59), Phenyl N-(3,4-dichlorophenyl)-3-(phenoxy)acrylimidate] | 100%
CCc1ccc(N=C(C=CSc2ccccc2)Oc2ccccc2)cc1 [(63), Phenyl N-(4-ethylphenyl)-3-(phenylthio)acrylimidate] | 100%
Cc1cccc(N=C(C=COc2ccccc2)Oc2ccccc2)c1 [(69), Phenyl N-(3-methylphenyl)-3-(phenoxy)acrylimidate] | 100%
Fc1ccc(N=C(C=COc2ccccc2)Oc2ccccc2)cc1 [(75), Phenyl N-(4-fluorophenyl)-3-(phenoxy)acrylimidate] | 100%
Brc1ccc(N=C(C=COc2ccccc2)Oc2ccccc2)cc1 [(77), Phenyl N-(4-bromophenyl)-3-(phenoxy)acrylimidate] | 100%
Ic1ccc(N=C(C=COc2ccccc2)Oc2ccccc2)cc1 [(80), Phenyl N-(4-iodophenyl)-3-(phenoxy)acrylimidate] | 100%
Cc1ccc(OC(C=CSc2ccccc2)=Nc2ccc(C(C)C)cc2)cc1 [(88), 4-Methylphenyl N-[4-(1-methylethyl)phenyl]-3-(phenylthio)acrylimidate] | 100%
Brc1cccc(SC=CC(=Nc2ccccc2)Oc2ccccc2)c1 [(101), Phenyl 3-(3-bromophenylthio)-N-phenylacrylimidate] | 100%
Brc1ccc(SC=CC(=Nc2ccccc2)Oc2ccccc2)cc1 [(102), Phenyl 3-(4-bromophenylthio)-N-phenylacrylimidate] | 100%
Fc1ccc(SC=CC(=Nc2ccccc2)Oc2ccccc2)cc1 [(103), Phenyl 3-(4-fluorophenylthio)-N-phenylacrylimidate] | 100%
Fc1ccccc1SC=CC(=Nc1ccccc1)Oc1ccccc1 [(104), Phenyl 3-(2-fluorophenylthio)-N-phenylacrylimidate] | 100%
Cc1cccc(SC=CC(=Nc2ccccc2)Oc2ccccc2)c1 [(106), Phenyl 3-(3-methylphenylthio)-N-phenylacrylimidate] | 100%

SMILES | mortality at 0.5 mg/filter paper
COc1cccc(SC=CC(=Nc2ccccc2)Oc2ccccc2)c1 [(107), Phenyl 3-(3-methoxyphenylthio)-N-phenylacrylimidate] | 100%
FC(F)(F)c1cccc(SC=CC(=Nc2ccccc2)Oc2ccccc2)c1 [(111), Phenyl N-phenyl-3-(3-trifluoromethylphenylthio)acrylimidate] | 100%
Fc1cccc(SC=CC(=Nc2ccccc2)Oc2ccccc2)c1 [(113), Phenyl 3-(3-fluorophenylthio)-N-phenylacrylimidate] | 100%
Cc1ccc(SC=CC(=Nc2ccccc2)Oc2ccccc2)cc1 [(118), Phenyl 3-(4-methylphenylthio)-N-phenylacrylimidate] | 100%
Cc1ccc(SC=CC(=Nc2ccccc2)Oc2ccccc2)c(C)c1 [(119), Phenyl 3-(2,4-dimethylphenylthio)-N-phenylacrylimidate] | 100%
Cc1ccc(C)c(SC=CC(=Nc2ccccc2)Oc2ccccc2)c1 [(120), Phenyl 3-(2,5-dimethylphenylthio)-N-phenylacrylimidate] | 100%
Cc1cc(C)cc(SC=CC(=Nc2ccccc2)Oc2ccccc2)c1 [(121), Phenyl 3-(3,5-dimethylphenylthio)-N-phenylacrylimidate] | 100%
CC(C)c1ccccc1SC=CC(=Nc1ccccc1)Oc1ccccc1 [(122), Phenyl 3-[2-(1-methylethyl)phenylthio]-N-phenylacrylimidate] | 100%
FC(F)(F)c1ccc(SC=CC(=Nc2ccccc2)Oc2ccccc2)cc1 [(123), Phenyl N-phenyl-3-(4-trifluoromethylphenylthio)acrylimidate] | 100%
COc1ccc(SC=CC(=Nc2ccccc2)Oc2ccccc2)cc1 [(146), Phenyl 3-(4-methoxyphenylthio)-N-phenylacrylimidate] | 100%
C#Cc1ccc(N=C(C=COc2ccccc2)Oc2ccccc2)cc1 [(156), Phenyl N-(4-ethynylphenyl)-3-(phenoxy)acrylimidate] | 100%
C=CCSC(C=CSc1ccccc1)=Nc1ccccc1 [(186), 2-Propenyl N-phenyl-3-(phenylthio)thioacrylimidate] | 100%
C(=CC(=Nc1ccccc1)SC1CCCCC1)Sc1ccccc1 [(187), Cyclohexyl N-phenyl-3-(phenylthio)thioacrylimidate] | 100%
CC(C)c1ccc(N=C(C=CSc2ccccc2)Oc2ccc(N)cc2)cc1 [(188), 4-Aminophenyl N-[4-(1-methylethyl)phenyl]-3-(phenylthio)acrylimidate] | 100%
FC(F)(F)Oc1ccc(N=C(C=COc2ccccc2)Oc2ccccc2)cc1 [(207), Phenyl N-(4-trifluoromethoxyphenyl)-3-phenoxyacrylimidate] | 100%
Fc1ccc(N=C(C=CSc2ccccc2)Sc2ccccc2)cc1 [(264), Phenyl N-(4-fluorophenyl)-3-(phenylthio)thioacrylimidate] | 100%
Cc1ccc(N=C(C=CSc2ccccc2)SC(C)(C)C)cc1 [(265), 1,1-Dimethylethyl N-(4-methylphenyl)-3-(phenylthio)thioacrylimidate] | 100%
CCSC(C=CSc1ccccc1)=Nc1ccc(C)cc1 [(266), Ethyl N-(4-methylphenyl)-3-(phenylthio)thioacrylimidate] | 100%
Fc1ccc(N=C(C=CSc2ccccc2)Sc2ccc(F)cc2)cc1 [(278), 4-Fluorophenyl N-(4-fluorophenyl)-3-(phenylthio)thioacrylimidate] | 100%
CCCSC(C=CSc1ccccc1)=Nc1ccc(C)cc1 [(280), Propyl N-(4-methylphenyl)-3-(phenylthio)thioacrylimidate] | 100%
CCCCSC(C=CSc1ccccc1)=Nc1ccc(C)cc1 [(284), Butyl N-(4-methylphenyl)-3-(phenylthio)thioacrylimidate] | 100%
Cc1ccc(N=C(C=CSc2ccccc2)SCC(C)C)cc1 [(321), 2-Methylpropyl N-(4-methylphenyl)-3-(phenylthio)thioacrylimidate] | 100%
CCC(C)SC(C=CSc1ccccc1)=Nc1ccc(C)cc1 (centres unmarked) [(324), 1-Methylpropyl N-(4-methylphenyl)-3-(phenylthio)thioacrylimidate] | 100%
Cc1ccc(N=C(C=CSc2ccccc2)SC2CCCC2)cc1 [(333), Cyclopentyl N-(4-methylphenyl)-3-(phenylthio)thioacrylimidate] | 100%
Cc1ccc(N=C(C=CSc2ccccc2F)SCC2CCCCC2)cc1 [(341), Cyclohexylmethyl 3-(2-fluorophenylthio)-N-(4-methylphenyl)-thioacrylimidate] | 100%
Cc1ccc(N=C(C=CSc2ccccc2F)SCC(C)C)cc1 [(428), Isobutyl 3-(2-fluorophenylthio)-N-(4-methylphenyl)thioacrylimidate] | 100%
